Measurements from paper PMC11357102, “Thiazole Functionalization of Thiosemicarbazone for Cu(II) Complexation: Moving toward Highly Efficient Anticancer Drugs with Promising Oral Bioavailability” (Molecules, 2024).

Experiments:
[1] = clinical trials; cited from earlier work
CD®(SD) IGS rats = test: Toxicological study of HL, daily PO administration; assay type: in vivo
Procedure: Their weight and status were monitored and compared with the control group (groups 1 and 2) that was fed sterilizing solutions. […] This highlights that a 5 mg kg^−1 drug dosage of HL by PO administration is safe for in vivo studies.
The weight of the rats was continuously monitored over 27 days, and they were fed on day 1, 4, 8, 13, 16, 19, and 23.

HuH-7 cells [2] = test: CCK-8 cytotoxicity assay, HuH-7; assay type: cell-based; conditions: Homo sapiens; HuH-7, CCK-8, 72 h incubation, n = 3
Procedure: (§1) The cytotoxicity of HL, 1, and 2 against three hepatocellular carcinoma cell lines Hep-G2, PLC/PRF/5, and HuH-7 were evaluated by the cell counting kit-8 (CCK-8; APExBIO Technology, Houston, TX, USA) assay.
(§2) The HuH-7 cell line was cultured in DMEM + 10% FBS + 1% P/S and DMEM + 1% P/S. Cells grew as a monolayer and were detached upon confluence using trypsin (0.5% w/v in PBS). The cells were harvested from the cell culture medium by incubation in trypsin solution for 3 min, and they were then centrifuged with the supernatant and subsequently discarded. A 3 mL portion of serum-supplemented cell culture medium was added to neutralize any residual trypsin. The cells were re-suspended in serum-supplemented DMEM at a concentration of 5 × 10^4 cells/mL. […] After incubation, 100 μL of culture medium (DMEM + 10% FBS + 1% P/S) and 10 μL of CCK-8 was introduced and cultured for an additional 2 h before spectrophotometric measurement at 450 nm on a microplate reader. The relative cell viability (%) related to control cells was calculated using the equation: V%=[A]experimental−[A]blank/[A]control−[A]blank×100% where V% is the percentage of cell viability, [A]experimental is the absorbance of the wells culturing the treated cells, [A]blank is the absorbance of the blank, and [A]control is the absorbance of the wells culturing untreated cells. […]

Hep-G2 cells = test: CCK-8 cytotoxicity assay, Hep-G2; assay type: cell-based; conditions: Homo sapiens, HepG2; Hep-G2, CCK-8, 72 h incubation, n = 3
Procedure: as §1, §2

HuH-7 cells [3] = test: Intracellular ROS generation, DCFH-DA probe; assay type: cell-based; conditions: HuH-7, equivalent HL concentration 2 μg/mL, 2 h
Source text: Given the efficient •OH production in water induced by 1 and 2, we next investigated in vitro ROS generation by 1 and 2 in the representative HuH-7 cell line using 2′,7′-dichlorodihydrofluorescein diacetate (DCFH-DA) as a fluorescence probe and compared it with that of HL [34, 35]. The non-emissive DCFH-DA can be readily uptaken by the cell, where it is hydrolyzed into 2,7-dichlorodihydrofluorescein (DCFH) by cellular enzymes. Upon oxidation by ROS, DCFH can convert to 2,7-dichlorofluorescein (DCF), which gives bright green fluorescence.
HuH-7 cells were introduced into a 12-well plate (4 × 10^5 per well) in 1 mL of growing media (DMEM + 10% FBS + 1% P/S), and the cells were incubated at 37 °C under 5% CO2 for 24 h for attachment. The growing media were removed, and the wells were replenished with HL, 1, and 2 in 1 mL of growing media (with 2 ppm of DMSO) with equivalent HL concentrations of 2 μg/mL. The cells were incubated for an additional 2 h, and then the culturing media was replaced with […] DCFH-DA in DMEM + 1% P/S (1 mL), prepared by diluting (1:1000) a concentrated DCFH-DA following the supplied protocols. The cells were incubated for a further 20 min, and then the culturing media was removed. […]

[4] = Stability of MeOH solutions by UV-Vis; conditions: HL/L concentration 30 μg/mL, kept for 72 h
[5] = Hydroxyl radical (•OH) production from H2O2, TMB assay; conditions: 5, 10, 20, 30 μg/mL HL or equivalent HL, 100 μM H2O2, 20 min incubation
Procedure: The generation of •OH from H2O2 by HL, 1, and 2 was assayed by 3,3′,5,5′-tetramethylbenzidine (TMB) [12, 28, 29]. The colorless TMB can be quickly oxidized by •OH to give a characteristic blue charge-transfer complex oxTMB with intense absorption at 652 nm [30, 31]. Different concentrations of HL (5, 10, 20, 30 μg/mL) or 1 and 2 containing equivalent HL were treated with (TMB) solution containing 100 μM H2O2, which is assumed as approximately the concentration reported to be present in tumor cells, or five times that in normal cells [32, 33].

PLC/PRF/5 cells = test: CCK-8 cytotoxicity assay, PLC/PRF/5; assay type: cell-based; conditions: Homo sapiens; PLC/PRF/5, CCK-8, 72 h incubation, n = 3
Procedure: as §1, §2

[6] = In vivo pharmacokinetic study of HL (plasma, HPLC); parameters: species or system CD®(SD) IGS rats
Procedure: For pharmacokinetic studies, CD®(SD) IGS rats (5−6 weeks old) were randomly divided into two groups (three for each group) for oral administration (per os, PO) or intravenous administration (i.v.) of HL with dosages of 30 mg kg^−1 and 0.5 mg kg^−1, respectively (Tables S3 and S4). The blood was then collected from the orbital sinus with a heparinized syringe at different time intervals (0.5, 1.0, 2.0, 4.0, 8.0, and 24 h for PO, and 0.03, 0.5, 1.0, 2.0, 4.0, 8.0, and 24 h for i.v.).
CD®(SD) IGS rats (5–6 weeks old) were purchased from Beijing Vital River Laboratory Animal Technology Co., Ltd. (Beijing, China). All animal experiments were conducted in accordance with the requirements of the Experimental Animal Welfare Ethics Committee of Transcenta Diagnostic Technology (Suzhou) Co., Ltd. (PZ-20211210001). For pharmacokinetic experiments, SD rats were randomly divided into two groups, with 3 for PO administration (30 mg kg^−1) and i.v. administration (0.5 mg kg^−1), respectively. Plasma was collected from the jugular vein with the presence of a heparinized syringe at different time intervals, viz. 0.5, 1.0, 2.0, 4.0, 8.0, and 24 h for PO and 0.03, 0.5, 1.0, 2.0, 4.0, 8.0, and 24 h for i.v. Plasma was first centrifuged at 3500 rpm for 10 min, and then 0.05 mL of the plasma was extracted; trifluoroacetic acid was used to acid precipitate protein, and NaOH was used to neutralize the solution. The mixture was diluted using MeCN: H2O (5:5 v/v). After 10 min of precipitating, supernatant fluids were collected by centrifugation at 10,000 rpm for 5 min and filtered with a syringe through a 0.22 μm hydrophilic membrane filter and measured using the HPLC method. For the HPLC assay, the analytical column was an Agilent ZORBAX SB C18 column (4.6 mm × 150 mm, 5 μm). The mobile phase was MeCN:H2O (5:5 v/v), the flow rate of the mobile phase was 0.8 mL min^−1, and the UV detector was set at 245 nm.

[7] = CD(SD) IGS (SD), rat, plasma, iv, 0.5 mg kg−1, mean, n = 3
[8] = CD(SD) IGS (SD), rat, plasma, iv, 0.5 mg/kg, 0.5 mg kg−1, mean, n = 3
[9] = CD(SD) IGS (SD), rat, plasma, po, 30 mg/kg, 30 mg kg−1, mean, n = 3
[10] = CD(SD) IGS (SD), rat, plasma, PO, 30 mg kg−1, mean, n = 3

## NC(=S)NN=Cc1ccc(O)cn1 [Compound 5-HP, 5-hydroxypicolinaldehyde thiosemicarbazone]
[1]
  side effects: severe hematological and gastrointestinal side effects

## NC(=S)NN=Cc1ncccc1N [Triapine, 3-aminopyridine-2-carboxaldehyde thiosemicarbazone]
[1]
  side effects: formation of methemoglobin hypoxia

## S=C(NN=C(c1ccccn1)c1ccccn1)N1CCN(c2nccs2)CC1 [HL, N′-(di(pyridin-2-yl)methylene)-4-(thiazol-2-yl)piperazine-1-carbothiohydrazide]
CD®(SD) IGS rats; daily 5 mg kg−1 (12.2 μmol kg−1), groups 3 and 4, similar to control groups 1 and 2
  body weight of rats: constantly growing
CD®(SD) IGS rats; daily 10 mg kg−1 (24.4 μmol kg−1), groups 5 and 6
  rats with abnormal behaviors (decreasing food uptake, cachexia, lethargy) on day 9, which died or were euthanized after drug suspension: four of six
HuH-7 cells [2]
  IC50: 192 µM
Hep-G2 cells
  IC50: 78.8 µM
HuH-7 cells [3]
  intracellular ROS generation (DCF fluorescence): negligible ROS
[4]
  stability of MeOH solution (UV-Vis absorption pattern): remained stable
[5]
  generation of •OH from H2O2 (oxTMB, absorption at 652 nm): no oxTMB found
PLC/PRF/5 cells
  IC50: 3.26 µM
[6]; [7]
  AUC(0-inf): 5700 ± 2650 ng·h/mL
  AUC(0-t): 4210 ng·h/mL
  C0: 858 ng/mL
  MRT last: 7.85 h
  half-life: 11.9 ± 1.66 h
[6]; CD(SD) IGS (SD), rat, plasma, iv, 0.5 mg kg−1, mean, n = 3, read-out: Cl_obs (converted)
  clearance: 1.8 mL/min/kg
[6]; CD(SD) IGS (SD), rat, plasma, iv, 0.5 mg kg−1, sampling time 0.03 h
  concentration at 0.03 h: 806 ng/mL
[6]; CD(SD) IGS (SD), rat, plasma, iv, 0.5 mg kg−1, sampling time 0.50 h
  concentration at 0.5 h: 349 ng/mL
[6]; CD(SD) IGS (SD), rat, plasma, iv, 0.5 mg kg−1, sampling time 1.00 h
  concentration at 1 h: 341 ng/mL
[6]; CD(SD) IGS (SD), rat, plasma, iv, 0.5 mg kg−1, sampling time 2.00 h
  concentration at 2 h: 372 ng/mL
[6]; CD(SD) IGS (SD), rat, plasma, iv, 0.5 mg kg−1, sampling time 4.00 h
  concentration at 4 h: 240 ng/mL
[6]; CD(SD) IGS (SD), rat, plasma, iv, 0.5 mg kg−1, sampling time 8.00 h
  concentration at 8 h: 163 ng/mL
[6]; CD(SD) IGS (SD), rat, plasma, iv, 0.5 mg kg−1, sampling time 24.00 h
  concentration at 24 h: 83.8 ng/mL
[6]; [8]
  Cmax: 806 ± 46.7 ng/mL
  Tmax: 0.03 h
[6]; [9]
  Cmax: 472 ng/mL
  Tmax: 1.17 h
[6]; [10]
  AUC(0-inf): 10400 ± 5310 ng·h/mL
  AUC(0-t): 5340 ng·h/mL
  MRT last: 9.4 h
  half-life: 21.6 ± 9.4 h
[6]; CD(SD) IGS (SD), rat, plasma, PO, 30 mg kg−1, mean, n = 3, read-out: Cl_F_obs (converted)
  CL/F: 55.6 mL/min/kg
[6]; CD(SD) IGS (SD), rat, plasma, PO, 30 mg kg−1, sampling time 0.50 h
  concentration at 0.5 h: 242 ng/mL
[6]; CD(SD) IGS (SD), rat, plasma, PO, 30 mg kg−1, sampling time 1.00 h
  concentration at 1 h: 426 ng/mL
[6]; CD(SD) IGS (SD), rat, plasma, PO, 30 mg kg−1, sampling time 2.00 h
  concentration at 2 h: 410 ng/mL
[6]; CD(SD) IGS (SD), rat, plasma, PO, 30 mg kg−1, sampling time 4.00 h
  concentration at 4 h: 316 ng/mL
[6]; CD(SD) IGS (SD), rat, plasma, PO, 30 mg kg−1, sampling time 8.00 h
  concentration at 8 h: 218 ng/mL
[6]; CD(SD) IGS (SD), rat, plasma, PO, 30 mg kg−1, sampling time 24.00 h
  concentration at 24 h: 145 ng/mL
[6]; PO, 30 mg kg−1, mean, n = 3
  Vz_F_obs: 93.07416 L/kg
[6]; i.v., 0.5 mg kg−1, mean, n = 3
  Vss_obs: 1.75547 L/kg
  Vz_obs: 1.75231 L/kg

## S=C(N/N=C1\CCCc2cccnc21)N1CCN(c2ccccn2)CC1 [COTI-2, 4-(pyridine-2-yl)-N-([(8E)-5,6,7,8-tetrahydroquinolin-8-ylidene]amino)piperazine-1-carbothioamide]
[1]
  side effects: drug resistance and other adverse effects (i.e., nausea, vomiting, and fatigue)
